Data reported in patent US6727206B2, “Substituted aryl ketones” (Bayer Aktiengesellschaft, priority 1999, dated 2004).
Like-named read-outs stand apart in the source and are kept apart here.

Experiments:
[1] = logP determination by HPLC on reversed-phase column (C 18), EEC directive 79/831 Annex V.A8; assay type: physicochemical; details: for logP: Table 1; label a): acidic range
Method: Temperature: 43° C. (a) Mobile phases for the determination in the acidic range: 0.1% aqueous phosphoric acid, acetonitrile; linear gradient of 10% acetonitrile to 90% acetonitrile—the corresponding data in Table 1 are labelled ^a). (b) Mobile phases for the determination in the neutral range: 0.01 molar aqueous phosphate buffer solution, acetonitrile, linear gradient from 10% acetonitrile to 90% acetonitrile—the corresponding data in Table 1 are labelled ^b).

weeds [2] = assay: Pre-emergence test, activity against weeds; assay type: in vivo; details: soil sprayed 24 hours after sowing, rated after three weeks
Description: (§1) Seeds of the test plants are sown in normal soil.
(§2) After three weeks, the degree of damage to the plants is rated in % damage in comparison to the development of the untreated control.

[3] = tested on: crop plants, such as cotton, maize, soya and wheat; assay: Pre-emergence test, tolerance by crop plants; assay type: in vivo; details: rated after three weeks
Description: as §1, §2

weeds [4] = assay: Post-emergence test, activity against weeds; assay type: in vivo; details: test plants of 5 to 15 cm sprayed, rated after three weeks
Description: as §2

[5] = tested on: crop plants, such as maize; assay: Post-emergence test, tolerance by crop plants; assay type: in vivo; details: rated after three weeks
Description: as §2

[6] = 0.1% aqueous phosphoric acid/acetonitrile gradient, 43° C.

SMILES	logP [1, 6]	also measured
Cn1c(Sc2cc(C(F)(F)F)ccc2C(=O)C2C(=O)CCCC2=O)n[nH]c1=O [Example 1, 2-[2-[(4-methyl-5-oxo-4,5-dihydro-1H-1,2,4-triazol-3-yl)-sulphanyl]-4-trifluoromethyl-benzoyl]-1,3-cyclohexanedione]	–	chromatographic logP ([1]; reversed-phase HPLC column (C 18), Example 1, mobile phase range not labelled, read-out: log P): 2; activity against weeds (degree of damage) (weeds [2]): strong activity; tolerance by crop plants [3]: tolerated well; activity against weeds (degree of damage) (weeds [4]): strong activity; tolerance by crop plants [5]: tolerated well
CCCn1nc(Sc2ccc(C(=O)C3C(=O)CCCC3=O)c(Cl)c2)n(C)c1=O [Example 49]	logP = 2.63^a)	–
Cn1nc(SCc2cc(C(F)(F)F)ccc2C(=O)O)n(C)c1=O [II-9, 2-[(4,5-dihydro-1,4-dimethyl-5-oxo-1H-1,2,4-triazol-3-yl)-sulphanylmethyl]-4-trifluoromethyl-benzoic acid]	–	chromatographic logP ([1]; reversed-phase HPLC column (C 18), Table 2 (starting materials of formula II); label a): acidic range): 1.94
Cn1nc(Sc2cc(C(F)(F)F)ccc2C(=O)C2C(=O)CCCC2=O)n(C)c1=O [Example 15]	–	activity against weeds (degree of damage) (weeds [2]): strong activity; tolerance by crop plants [3]: tolerated well; activity against weeds (degree of damage) (weeds [4]): strong activity; tolerance by crop plants [5]: tolerated well
Cn1nc(S(=O)(=O)c2ccc(C(=O)C3C(=O)CCCC3=O)c(Cl)c2)n(C)c1=O [Example 13]	logP = 2.09^a)	–
Cn1c(C(S)c2c(Cl)ccc(C(=O)C3C(=O)CCCC3=O)c2Cl)n[nH]c1=O (stereo not shown)	–	melting point: 187 °C
C#CCn1nc(Sc2ccc(C(=O)C3C(=O)CCCC3=O)c(Cl)c2)n(C)c1=O [Example 53]	logP = 2.37^a)	–
Cn1c(S(=O)(=O)Cc2c(Cl)ccc(C(=O)C3C(=O)CCCC3=O)c2Cl)n[nH]c1=O [Example 25]	logP = 1.87^a)	–
CCn1nc(Sc2ccc(C(=O)C3C(=O)CCCC3=O)c(Cl)c2)n(C)c1=O [Example 47]	logP = 2.34^a)	–
Cn1c(Sc2ccc(C(=O)C3C(=O)CCCC3=O)c(Cl)c2)nn(CC2CC2)c1=O [Example 55]	logP = 2.72^a)	–
C=CCn1nc(Sc2ccc(C(=O)C3C(=O)CCCC3=O)c(Cl)c2)n(C)c1=O [Example 51]	logP = 2.47^a)	–
CCn1ncc(C(=O)c2ccc(Sc3n[nH]c(=O)n3C)cc2Cl)c1O	–	melting point: 216 °C
CCn1ncc(C(=O)c2ccc(C(F)(F)F)cc2S(=O)(=O)c2nn(C)c(=O)n2C)c1O [Example 69]	logP = 1.72^a)	–
Cn1c([S+]([O-])Cc2c(Cl)ccc(C(=O)C3C(=O)CCCC3=O)c2Cl)n[nH]c1=O (stereo not shown) [Example 28]	logP = 1.61^a)	–
Cn1c(S(=O)(=O)c2ccc(C(=O)C3C(=O)CCCC3=O)c(Cl)c2)n[nH]c1=O [Example 14]	logP = 1.88^a)	–
Cn1nc([S+]([O-])Cc2cc(C(F)(F)F)ccc2C(=O)C2C(=O)CCCC2=O)n(C)c1=O (stereo not shown) [Example 70]	logP = 1.95^a)	–
Cn1nc(Sc2ccc(C(=O)C3C(=O)CCCC3=O)c(Cl)c2)n(C)c1=O [Example 6]	logP = 2.08^a)	–
Cn1nc(S(=O)(=O)Cc2c(Cl)ccc(C(=O)C3C(=O)CCCC3=O)c2Cl)n(C)c1=O [Example 23]	logP = 2.09^a)	–
CCn1ncc(C(=O)c2ccc(C(F)(F)F)cc2C[S+]([O-])c2nn(C)c(=O)n2C)c1O (stereo not shown) [Example 71]	logP = 1.77^a)	–
Cn1c([S+]([O-])Cc2c(Cl)ccc(C(=O)C3C(=O)CCCC3=O)c2Cl)n[nH]c1=O (stereo not shown) [Example 22, 2-[2,4-dichloro-3-[(4-methyl-5-oxo-4,5-dihydro-1H-1,2,4-triazol-3-yl)-sulphinylmethyl]-benizoyl]-1,3-cyclohexanedione]	–	chromatographic logP ([1]; reversed-phase HPLC column (C 18); Table 1; label a): acidic range, 0.1% aqueous phosphoric acid/acetonitrile gradient, 43° C.): 1.6
Cc1nn(C)c(O)c1C(=O)c1ccc(Sc2nn(C)c(=O)n2C)cc1Cl [Example 9]	logP = 1.34^a)	–
Cn1c(Sc2ccc(C(=O)C3C(=O)CCCC3=O)c(Cl)c2)nn(Cc2ccccc2)c1=O [Example 57]	logP = 3.04^a)	–
Cn1nc(SCc2c(Cl)ccc(C(=O)C3C(=O)CCCC3=O)c2Cl)n(C)c1=O [Example 20]	logP = 2.24^a)	–
Cn1nc(S(=O)(=O)c2cc(C(F)(F)F)ccc2C(=O)C2C(=O)CCCC2=O)n(C)c1=O [Example 68]	logP = 1.85^a)	–
